pIC50: −log10 of the molar value.

The target in data set [1] is T1, casein kinase 1 epsilon (CK1 epsilon) (Homo sapiens, UniProt P49674).
T1 construct: Invitrogen Corporation (named as alternative)
Put plainly: Filter-plate assay of ATP-33P, inhibition of casein phosphorylation by CK1 epsilon. It is filed as biochemical. The conditions noted are these: casein substrate, ATP 10 μM, 2 hours at ambient temperature. As for the experimental part: The capacity of the compounds of the invention to inhibit the phosphorylation of casein by casein kinase 1 epsilon and delta may be evaluated according to the procedure described in US 2005/0131012.
Filter-Plate Assay of ATP-^33P for the Screening of CK1 Epsilon Inhibitors:
The effect of the compounds on inhibition of the phosphorylation of casein by the enzyme casein kinase 1 epsilon (CK1 epsilon) is measured, using a casein assay with filtration of ATP-^33P in vitro.
Casein kinase 1 epsilon (0.58 mg/ml) is obtained via fermentation and purification processes performed according to methods that are well known to those skilled in the art, or may also be obtained from Invitrogen Corporation™ (human CK1 epsilon).
The compounds are tested at five different concentrations so as to generate IC50 values, i.e. the concentration at which a compound is capable of inhibiting the enzymatic activity by 50%, or alternatively the percentage of inhibition at a concentration of 10 micromolar.
“U”-bottomed Falcon plates are prepared by placing 5 μL of solutions of the compounds according to the invention at concentrations of 10, 1, 0.1, 0.01 or 0.001 μM in various wells. The solutions of the compounds according to the invention at these various concentrations are prepared by diluting in a test buffer (50 mM Tris, pH 7.5, […], 2 mM DTT and 1 mM EGTA) a stock solution in DMSO at a concentration of 10 mM. Next, 5 μL of dephosphorylated casein are added to a final concentration of 0.2 μg/μL, 20 μl of CK1 epsilon to a final concentration of 3 ng/μl, and 20 μl of ATP-^33P to a final concentration of 0.02 μCi/μl mixed with cold ATP (10 μM final—approximately 2×10^6 CPM per well). The final total test volume per well is equal to 50 μl.
The “U”-bottomed Falcon® test plate mentioned above is vortexed, and then incubated at ambient temperature for 2 hours. After 2 hours, the reaction is stopped by adding an ice-cold solution of 65 μl of ATP (2 mM) prepared in test buffer.
100 μl of the reaction mixture are then transferred from the “U”-bottomed Falcon® plate into Millipore® MAPH filter plates, preimpregnated with 25 μl of ice-cold 100% TCA. […]
The plates are left to dry overnight at ambient temperature. […] The radiation emitted by each well is then measured for 2 minutes in a Packard® Topcount NXT scintillation counter, in which the values of CPM/well are measured.
The percentage inhibition of the capacity of the enzyme to phosphorylate the substrate (casein) is determined for each concentration of compound tested. These inhibition data expressed as percentages are used to calculate the IC50 value for each compound compared with the controls.
The kinetic studies determined the KM value for ATP as being 21 μM in this test system.

Data set [2] relates to Mper1-luc Rat-1 (P2C4) fibroblasts. Put plainly: Circadian cell assay (mPer1-luciferase reporter, period prolongation). The data set is classed as cell-based. The settings on record: effective concentration that induced a 1-hour prolongation of the circadian period, interpolated from hyperbolic curve. The protocol: Experimental Protocols for Circadian Cell Assay
Mper1-luc Rat-1 (P2C4) fibroblast cultures were prepared by dividing the cultures every 3-4 days (approximately 10-20% of confluence) on 150 cm^2 degassed polystyrene tissue culture flasks (Falcon® #35-5001) and maintained in growth medium [EMEM (Cellgro #10-010-CV); 10% fetal bovine serum (FBS; Gibco #16000-044); and 50 I.U./ml of penicillin-streptomycin (Cellgro #30-001-CI)] at 37° C. and under 5% CO2.
Cells obtained from Rat-1 fibroblast cultures at 30-50% of confluence as described above were co-transfected with vectors containing the selection marker for resistance to zeocin for a stable transfection and a luciferase reporter gene controlled by the mPer-1 promoter. After 24 to 48 hours, the cultures were divided on 96-well plates and maintained in growth medium supplemented with 50-100 μg/ml of zeocin (Invitrogen® #45-0430) for 10-14 days. The zeocin-resistant stable transfectants were evaluated for the expression of the reporter by adding 100 μM lucerfin (Promega® #E1603®) to the growth medium and by assaying the luciferase activity on a TopCount® scintillation counter (Packard Model #C384V00). The Rat-1 cell clones expressing both zeocin resistance and lucerifase activity controlled by mPer1 were serum-shock synchronized with 50% horse serum [HS (Gibco® #16050-122)] and the activity of the circadian reporter was evaluated. The P2C4 clone of Mper1-luc Rat-1 fibroblasts was selected to test the compound.
Mper1-luc Rat-1 (P2C4) fibroblasts at 40-50% of confluence, obtained according to the protocol described above, were plated out onto 96-well opaque tissue culture plates (Perkin Elmer® #6005680). The cultures are maintained in growth medium supplemented with 100 μg/ml of zeocin (Invitrogen #45-0430) until they reach 100% of confluence (48-72 h). The cultures were then synchronized with 100 μl of synchronization medium [EMEM (Cellgro #10-010-CV); 100 I.U./ml of penicillin-streptomycin (Cellgro #30-001-C1); 50% HS (Gibco #16050-122)] for 2 hours at 37° C. and under 5% CO2. After synchronization, the cultures were rinsed with 100 μl of EMEM (Cellgro #10-010-CV) for 10 minutes at ambient temperature. […]
The period analysis was performed either by determining the interval between the relative light emission minima over several days or by Fourier transform. […] The data were analyzed by adjusting a hyperbolic curve to the data expressed as change of period (y-axis) as a function of the concentration of the test compound (x-axis) in the XLfit™ software and the CE Delta (t+1 h) was interpolated from this curve.
On the technique in general: In a reporter assay the amount or activity of a reporter protein is the signal.

The target of data set [3] is T2, human CK1 delta (Homo sapiens, UniProt P48730).
T2 construct: purchased Invitrogen Corporation PV3665
The data set can be described thus: FRET fluorescence test (Z'Lyte kinase assay Kit), CK1 delta. The data set is classed as biochemical. The conditions noted are these: peptide substrate SER/THR 11 2 μM, ATP 4 times the KM. The text has this: The capacity of the compounds of the invention to inhibit the phosphorylation of casein by casein kinase 1 epsilon and delta may be evaluated using a FRET (“Fluorescence Resonance Energy Transfer) fluorescence test with the aid of the “Z′Lyte™ kinase assay Kit” (reference PV3670; Invitrogen Corporation™) according to the manufacturer's instructions.
The casein kinases 1 used are obtained from Invitrogen Corporation (human CK1 epsilon PV3500 and human CK1 delta PV3665).
A peptide substrate, labeled at both ends with a fluorophore donor group (coumarin) and a fluorophore acceptor group ([…]) constituting a FRET system is phosphorylated in the presence of ATP by casein kinase 1 epsilon or delta in the presence increasing concentrations of compounds of the invention. The mixture is treated with a site-specific protease that specifically cleaves the peptide substrate to form two fluorescent fragments having a large fluorescence emission ratio.
The fluorescence observed is thus related to the capacity of the products of the invention to inhibit the phosphorylation of the peptide substrate by casein kinase 1 epsilon or casein kinase 1 delta.
The compounds of the invention are dissolved at different concentrations starting with a 10 mM stock solution in DMSO diluted in a buffer containing 50 mM HEPS, pH 7.5, 1 m MEGTA, 0.01% Brij-35, 10 mM MgCl for casein kinase 1 epsilon and supplemented with Trizma Base (50 mM), pH 8.0, and NaN3 (0.01% final) for casein kinase 1 delta.
The phosphorylation of the peptide substrate SER/THR 11 obtained from Invitrogen Corporation™ is performed at a final concentration of 2 μM. The ATP concentration is 4 times the KM, this value being 2 μM for casein kinase 1 epsilon and 4 μM for casein kinase 1 delta.
The emitted fluorescence is measured at wavelengths of 445 and 520 nm (excitation at 400 nm).

T2 sequence (P48730 whole entry): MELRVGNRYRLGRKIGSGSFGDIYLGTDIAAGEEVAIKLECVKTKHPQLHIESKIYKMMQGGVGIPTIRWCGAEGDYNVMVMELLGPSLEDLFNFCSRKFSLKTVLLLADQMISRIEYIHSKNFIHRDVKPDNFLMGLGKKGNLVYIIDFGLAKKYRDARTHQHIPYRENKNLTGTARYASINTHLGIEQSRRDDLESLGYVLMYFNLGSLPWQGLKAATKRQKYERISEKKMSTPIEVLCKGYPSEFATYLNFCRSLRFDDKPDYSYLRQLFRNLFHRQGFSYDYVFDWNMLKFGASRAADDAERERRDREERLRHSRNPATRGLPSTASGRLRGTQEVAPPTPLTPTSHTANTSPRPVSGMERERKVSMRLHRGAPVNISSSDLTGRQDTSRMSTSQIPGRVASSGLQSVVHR
T1 sequence (P49674 whole entry): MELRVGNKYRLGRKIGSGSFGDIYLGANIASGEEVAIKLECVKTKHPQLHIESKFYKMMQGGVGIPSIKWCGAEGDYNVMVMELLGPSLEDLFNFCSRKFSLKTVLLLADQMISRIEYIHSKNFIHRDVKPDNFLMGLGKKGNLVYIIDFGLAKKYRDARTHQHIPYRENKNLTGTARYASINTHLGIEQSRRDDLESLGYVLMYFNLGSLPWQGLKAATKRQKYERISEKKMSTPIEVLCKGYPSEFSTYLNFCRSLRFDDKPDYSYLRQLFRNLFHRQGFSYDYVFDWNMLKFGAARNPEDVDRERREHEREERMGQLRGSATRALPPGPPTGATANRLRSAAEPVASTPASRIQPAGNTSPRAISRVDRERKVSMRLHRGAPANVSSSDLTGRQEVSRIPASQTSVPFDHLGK

A word on the melting point: it is the temperature of the solid-liquid transition. In general, pIC50 refers to the IC50 on a negative log10 scale, so that one unit is a factor of ten. Read a high pIC50 as a low IC50. Regarding `OCC1CN(c2ccc3nc(-c4ccc(F)cc4)c(-c4ccnnc4)n3n2)CCN1` (racemic) [compound 39, (+/−)-{4-[2-(4-fluorophenyl)-3-pyridazin-4-ylimidazo[1,2-b]pyridazin-6-yl]piperazin-2-yl}methanol], the melting point is 205 to 212 °C. Besides, in data set [1], the pIC50 was 7.01. In data set [2], the “CE Delta (t + 1 h)” value is reported as 178 nM.
For the compound `Fc1ccc(-c2nc3ccc(N4CCNCC4)nn3c2-c2ccnnc2)cc1` [Compound No. 1, 2-(4-fluorophenyl)-6-(piperazin-1-yl)-3-(pyridazin-4-yl)imidazo[1,2-b]pyridazine], the pIC50 in data set [3] was 9.00.
Turning to `C[C@@H]1CN(c2ccc3nc(-c4ccc(F)cc4)c(-c4ccnnc4)n3n2)CCN1` [Compound No. 2, 2-(4-fluorophenyl)-6-((R)-3-methylpiperazin-1-yl)-3-(pyridazin-4-yl)imidazo[1,2-b]pyridazine], the “CE Delta (t + 1 h)” value in data set [2] amounted to 164 nM.
Consider `CC(C)N1CCN(c2ccc3nc(-c4ccc(F)cc4)c(-c4ccnnc4)n3n2)CC1` [Compound No. 11, 2-(4-fluorophenyl)-6-(4-isopropyl-piperazin-1-yl)-3-(pyridazin-4-yl)imidazo[1,2-b]pyridazine], for which the pIC50 in data set [3] was 7.19 to 7.30.
For `CC(C)N1CCN(c2ccc3nc(-c4ccc(F)c(F)c4)c(-c4ccnnc4)n3n2)CC1` [compound 14, 2-(3,4-difluorophenyl)-6-(4-isopropylpiperazin-1-yl)-3-pyridazin-4-yl-imidazo[1,2-b]pyridazine], the melting point fell in the range of 192 to 194 °C. Further, in data set [2], the “CE Delta (t + 1 h)” value stood at 62 nM.

Source of the values: US8455491B2, “6-cycloamino-3-(pyridazin-4-yl)imidazo[1,2-b]pyridazine and derivatives and pharmaceutical compositions comprising the same” (Sanofi, priority 2007, dated 2013).
